Source: PubChem BioAssay (NCI)
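96-well plates; 48 h exposure; 5 concentrations. Endpoints by linear interpolation between flanking doses. Not reached: highest tested concentration assigned. The concentration for full growth arrest is given as TGI.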

Experiments:
Test in all cases: growth of human tumour cells (NCI), 48 h
786-0 renal = tested on: 786-0 renal
A498 renal = tested on: A498 renal
A549 NSCLC = tested on: A549 NSCLC
ACHN renal = tested on: ACHN renal
CAKI-1 renal = tested on: CAKI-1 renal
CCRF-CEM leukemia = tested on: CCRF-CEM leukemia
COLO 205 colon = tested on: COLO 205 colon
DLD-1 colon = tested on: DLD-1 colon
DMS 114 small cell lung = tested on: DMS 114 small cell lung
DMS 273 small cell lung = tested on: DMS 273 small cell lung
EKVX NSCLC = tested on: EKVX NSCLC
HCC-2998 colon = tested on: HCC-2998 colon
HCT-116 colon = tested on: HCT-116 colon
HCT-15 colon = tested on: HCT-15 colon
HL-60(TB) leukemia = tested on: HL-60(TB) leukemia
HOP-18 NSCLC = tested on: HOP-18 NSCLC
HOP-62 NSCLC = tested on: HOP-62 NSCLC
HOP-92 NSCLC = tested on: HOP-92 NSCLC
HT29 colon = tested on: HT29 colon
IGROV1 ovarian = tested on: IGROV1 ovarian
K-562 leukemia = tested on: K-562 leukemia
KM12 colon = tested on: KM12 colon
KM20L2 colon = tested on: KM20L2 colon
LOX IMVI melanoma = tested on: LOX IMVI melanoma
LXFL 529 NSCLC = tested on: LXFL 529 NSCLC
M14 melanoma = tested on: M14 melanoma
M19-MEL melanoma = tested on: M19-MEL melanoma
MALME-3M melanoma = tested on: MALME-3M melanoma
MOLT-4 leukemia = tested on: MOLT-4 leukemia
NCI-H226 lung = tested on: NCI-H226 lung
NCI-H23 lung = tested on: NCI-H23 lung
NCI-H460 lung = tested on: NCI-H460 lung
OVCAR-3 ovarian = tested on: OVCAR-3 ovarian
OVCAR-4 ovarian = tested on: OVCAR-4 ovarian
OVCAR-5 ovarian = tested on: OVCAR-5 ovarian
OVCAR-8 ovarian = tested on: OVCAR-8 ovarian
RPMI-8226 leukemia = tested on: RPMI-8226 leukemia
RXF 393 renal = tested on: RXF 393 renal
SF-268 CNS = tested on: SF-268 CNS
SF-295 CNS = tested on: SF-295 CNS
SF-539 CNS = tested on: SF-539 CNS
SK-MEL-2 melanoma = tested on: SK-MEL-2 melanoma
SK-MEL-28 melanoma = tested on: SK-MEL-28 melanoma
SK-MEL-5 melanoma = tested on: SK-MEL-5 melanoma
SK-OV-3 ovarian = tested on: SK-OV-3 ovarian
SN12C renal = tested on: SN12C renal
SNB-19 CNS = tested on: SNB-19 CNS
SNB-75 CNS = tested on: SNB-75 CNS
SNB-78 CNS = tested on: SNB-78 CNS
SR leukemia = tested on: SR leukemia
SW-620 colon = tested on: SW-620 colon
TK-10 renal = tested on: TK-10 renal
U251 CNS = tested on: U251 CNS
UACC-257 melanoma = tested on: UACC-257 melanoma
UACC-62 melanoma = tested on: UACC-62 melanoma
UO-31 renal = tested on: UO-31 renal
NCI-H522 lung = tested on: NCI-H522 lung
XF 498 CNS = tested on: XF 498 CNS

`CC1(Cl)CC2OC3(Br)C=CC(C)(O)C2(CC1Br)C3(C)C` (stereo unspecified) showed a TGI (786-0 renal) greater than 100 µM, a TGI (A498 renal) greater than 100 µM and a TGI (A549 NSCLC) greater than 100 µM. For the same compound, the TGI (ACHN renal) was greater than 100 µM, the TGI (CAKI-1 renal) was greater than 100 µM and the TGI (CCRF-CEM leukemia) was greater than 100 µM. For the same compound, the TGI (COLO 205 colon) was greater than 100 µM, the TGI (DLD-1 colon) was greater than 100 µM and the TGI (DMS 114 small cell lung) was greater than 100 µM. The TGI (DMS 273 small cell lung) was greater than 100 µM, the TGI (EKVX NSCLC) was greater than 100 µM and the TGI (HCC-2998 colon) was greater than 100 µM. The TGI (HCT-116 colon) was greater than 100 µM, the TGI (HCT-15 colon) was greater than 100 µM and the TGI (HL-60(TB) leukemia) was greater than 100 µM. For the same compound, the TGI (HOP-18 NSCLC) was greater than 100 µM, the TGI (HOP-62 NSCLC) was greater than 100 µM and the TGI (HOP-92 NSCLC) was greater than 100 µM. It also gave a TGI (HT29 colon) greater than 100 µM, a TGI (IGROV1 ovarian) greater than 100 µM and a TGI (K-562 leukemia) greater than 100 µM. It also gave a TGI (KM12 colon) greater than 100 µM, a TGI (KM20L2 colon) greater than 100 µM and a TGI (LOX IMVI melanoma) greater than 100 µM. The TGI (LXFL 529 NSCLC) was greater than 100 µM, the TGI (M14 melanoma) was greater than 100 µM and the TGI (M19-MEL melanoma) was greater than 100 µM. For the same compound, the TGI (MALME-3M melanoma) was greater than 100 µM, the TGI (MOLT-4 leukemia) was greater than 100 µM and the TGI (NCI-H226 lung) was greater than 100 µM. It also gave a TGI (NCI-H23 lung) greater than 100 µM, a TGI (NCI-H460 lung) greater than 100 µM and a TGI (OVCAR-3 ovarian) greater than 100 µM. The TGI (OVCAR-4 ovarian) was greater than 100 µM, the TGI (OVCAR-5 ovarian) was greater than 100 µM and the TGI (OVCAR-8 ovarian) was greater than 100 µM. It also gave a TGI (RPMI-8226 leukemia) greater than 100 µM, a TGI (RXF 393 renal) greater than 100 µM and a TGI (SF-268 CNS) greater than 100 µM. The TGI (SF-295 CNS) was greater than 100 µM, the TGI (SF-539 CNS) was greater than 100 µM and the TGI (SK-MEL-2 melanoma) was greater than 100 µM. It also gave a TGI (SK-MEL-28 melanoma) greater than 100 µM, a TGI (SK-MEL-5 melanoma) greater than 100 µM and a TGI (SK-OV-3 ovarian) greater than 100 µM. It also gave a TGI (SN12C renal) greater than 100 µM, a TGI (SNB-19 CNS) greater than 100 µM and a TGI (SNB-75 CNS) greater than 100 µM. For the same compound, the TGI (SNB-78 CNS) was greater than 100 µM, the TGI (SR leukemia) was greater than 100 µM and the TGI (SW-620 colon) was greater than 100 µM. For the same compound, the TGI (TK-10 renal) was greater than 100 µM, the TGI (U251 CNS) was greater than 100 µM and the TGI (UACC-257 melanoma) was greater than 100 µM. For the same compound, the TGI (UACC-62 melanoma) was greater than 100 µM and the TGI (UO-31 renal) was greater than 100 µM.

`COC(c1cccc(C(O)(C(F)(F)F)C(F)(F)F)c1)(C(F)(F)F)C(F)(F)F` gave a TGI (786-0 renal) of 31.8 µM, a TGI (A498 renal) of 34.4 µM and a TGI (A549 NSCLC) of 31.2 µM. The TGI (ACHN renal) was 29.2 µM, the TGI (CAKI-1 renal) was 39.7 µM and the TGI (COLO 205 colon) was 33.5 µM. For the same compound, the TGI (DLD-1 colon) was 34.6 µM, the TGI (DMS 114 small cell lung) was 32.6 µM and the TGI (DMS 273 small cell lung) was 34.8 µM. For the same compound, the TGI (EKVX NSCLC) was 33.3 µM, the TGI (HCC-2998 colon) was 21.7 µM and the TGI (HCT-116 colon) was 31 µM. The TGI (HCT-15 colon) was 53.9 µM, the TGI (HOP-18 NSCLC) was 32.1 µM and the TGI (HOP-62 NSCLC) was 33.7 µM. It also gave a TGI (HT29 colon) of 31.6 µM, a TGI (IGROV1 ovarian) of 35.3 µM and a TGI (KM12 colon) of 33.9 µM. The TGI (KM20L2 colon) was 31.2 µM, the TGI (LOX IMVI melanoma) was 34.1 µM and the TGI (LXFL 529 NSCLC) was 32 µM. The TGI (M14 melanoma) was 34 µM, the TGI (M19-MEL melanoma) was 30.5 µM and the TGI (MALME-3M melanoma) was 35.3 µM. The TGI (MOLT-4 leukemia) was 40.5 µM, the TGI (NCI-H226 lung) was 37.8 µM and the TGI (NCI-H23 lung) was 35.3 µM. The TGI (NCI-H460 lung) was 41.5 µM, the TGI (NCI-H522 lung) was 26.5 µM and the TGI (OVCAR-3 ovarian) was 38 µM. For the same compound, the TGI (OVCAR-4 ovarian) was 30.4 µM, the TGI (OVCAR-5 ovarian) was 32.4 µM and the TGI (OVCAR-8 ovarian) was 45.4 µM. For the same compound, the TGI (RXF 393 renal) was 35.9 µM, the TGI (SF-268 CNS) was 38.5 µM and the TGI (SF-295 CNS) was 30.2 µM. It also gave a TGI (SF-539 CNS) of 33.3 µM, a TGI (SK-MEL-2 melanoma) of 33.7 µM and a TGI (SK-OV-3 ovarian) of 34.4 µM. For the same compound, the TGI (SN12C renal) was 32.2 µM, the TGI (SNB-19 CNS) was 34.5 µM and the TGI (SNB-75 CNS) was 32.1 µM. The TGI (SR leukemia) was 51.4 µM, the TGI (SW-620 colon) was 32.9 µM and the TGI (TK-10 renal) was 36.6 µM. For the same compound, the TGI (U251 CNS) was 33.9 µM, the TGI (UACC-257 melanoma) was 42.3 µM and the TGI (UACC-62 melanoma) was 28.2 µM. The TGI (UO-31 renal) was 34.2 µM and the TGI (XF 498 CNS) was 28.2 µM.
